Results: patent US11013726B2 (Arbutus Biopharma Corporation, priority 2016, dated 2021)

What was measured:
[1] = system: HBV; assay: HBV production assay; assay type: cell-based; conditions: Hepatitis B virus, 144 h; HepG2.2.15 cells, 6 days, HBV DNA in supernatant by qPCR
Procedure: HepG2.2.15 cells were maintained and seeded as described above. After administration of test compounds for 6 days, supernatant was collected and clarified by low speed centrifugation. HBV DNA was released from virion in the supernatant by incubating in lysis buffer (Roche, Catalog #07248431001). HBV DNA levels were quantified by qPCR/TaqMan assay. The nucleoside analog Entecavir (ETV) was used as a control to determine inhibition of HBV virion production in the supernatant. Table 4 illustrates EC50 values obtained by the HBV production assay for selected compounds.

[2] = system: isolated heart; assay: Langendorff assay; conditions: any of the concentrations tested
Excerpt: (§1) The compounds of the invention disclosed in the present application were screened to evaluate their potency and toxicity profiles. Several compounds having desirable potency and toxicity profiles were identified in these screens.

[3] = clearance from blood plasma in dogs; assay type: in vivo
Excerpt: as §1

[4] = system: HBsAg; assay: HBsAg assay; assay type: cell-based, hepatitis B virus; conditions: Hepatitis B virus, HepG2.2.15, 144 h, read-out: sAg EC50, μM, HepG2.2.15 cells, day 6
Method in brief: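 HepG2.2.15 cells were treated with serially diluted compounds (0.5% DMSO), with medium and compound renewed after 2-3 days. Secreted HBsAg measured at day 6 by chemiluminescence immunoassay; EC50 from dose-response curves. Viability assessed in parallel by CellTiter-Glo.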

[5] = system: HBsAg; assay: In vitro combination study, HBsAg CLIA, MacSynergy II; assay type: cell-based, hepatitis B virus; parameters: MacSynergy volume: unit not given here; conditions: for Additive % Inhibition (HBsAg) versus negative control / Avg % Inhibition (HBsAg) versus negative control: LNP-1 0.0025, 0.00079, 0.00025, 7.9E−05, 2.5E−05, 0 μM; for Additive % Inhibition versus negative control / MacSynergy volume: LNP-2 0 μM; for MacSynergy volume: 99.99% confidence interval
Procedure: In vitro combination studies were conducted using the method of Prichard & Shipman, 1990, Antiviral Res. 14(4-5):181-205, and Prichard, et al., MacSynergy II). The HepG2.2.15 cell culture system is a cell line derived from human hepatoblastoma HepG2 cells, that have been stably transfected with the adw2-subtype HBV genome (Sells, et al., 1987, Proc. Natl. Acad. Sci. U.S.A 84:1005-1009). HepG2.2.15 cells secrete Dane-like viral particles, produce HBV DNA, and produce the viral proteins, HBeAg and HBsAg.
Non-limiting examples of HBV RNA destabilizers are Compound A and Compound B. The EC50 values of these agents are shown in Table 12. Although inhibition of HBV DNA, RNA and proteins can be determined in the presence of the compounds of the invention and LNPs (both referred to herein as “agents”), the assay that can quantitatively measure the level of HBsAg was used in this study. To test the agent combinations, HepG2.2.15 (30,000 cells/well) were plated in 96 well tissue-culture treated microtiter plates in DMEM+L-Glutamine medium supplemented with 1% penicillin-streptomycin, 20 μg/mL geneticin (G418), 10% fetal bovine serum, and incubated in a humidified incubator at 37° C. and 5% CO2 overnight. The next day, the cells were replenished with fresh medium followed by the addition of compound of the invention (dissolved in 100% DMSO), and LNP (dissolved in 100% RPMI medium). The agents were added to cells in a checkerboard fashion. The microtiter cell plates were incubated for a total duration of 6 days in a humidified incubator at 37° C. and 5% CO2. On the 3rd day of incubation, the cells were replenished with fresh medium and agents. The serial dilutions spanned concentration ranges respective to the EC50 value of each agent, with the final DMSO concentration of the assay being 0.5%. In addition to combination testing of the agents in a checkerboard fashion, the compound and LNP were also tested alone.
Untreated positive control samples (0.5% DMSO in media) were included on each plate in multiple wells. Following a 6 day-incubation, media was removed from treated cells for use in an HBsAg chemiluminescence immunoassay (CLIA) (Autobio Diagnostics, Cat No. CL0310-2). An HBsAg standard curve was generated to verify that the levels of HBsAg quantification were within the detection limits of the assay. The remaining inhibitor-treated cells were assessed for cytotoxicity by determination of the intracellular adenosine triphosphate (ATP) using a Cell-Titer Glo reagent (Promega) as per manufacturers instructions and by microscopic analysis of the cells throughout the duration of inhibitor treatment. Cell viability was calculated as a percentage of the untreated positive control wells.
The plates were read using an EnVision multimode plate reader (PerkinElmer Model 2104). […] The RLU data from the single agent treated cells were analyzed using XL-Fit module in Microsoft Excel to determine EC50 values using a 4-parameter curve fitting algorithm.

Structure (SMILES): COc1cc2c(cc1Cl)-c1cc(=O)c(C(=O)O)cn1C(C(C)C)CO2 (stereo not drawn)
- EC50 [1]: 0.077 µM

Structure (SMILES): COc1cc2c(cc1Cl)-c1cc(=O)c(C(=O)O)cn1[C@H](C(C)C)CO2
- EC50 [1]: 0.03 µM

Structure (SMILES): COCCCOc1cc2c(nc1OC)-c1cc(=O)c(C(=O)O)cn1[C@H](C(C)C)C2 (single isomer, unassigned) [Example 22]
- effect on measured electrocardiogram parameters [2]: no effect on any of the measured electrocardiogram parameters
- clearance from blood plasma [3]: cleared relatively slowly
- EC50 [4]: 0.002 µM

Structure (SMILES): COCCCOc1cc2c(cc1Cl)-c1cc(=O)c(C(=O)O)cn1[C@H](C(C)C)CO2 [Compound B]
- Additive % Inhibition (HBsAg) versus negative control ([5]; Compound B 0.0002 μM): 19.99%
- Avg % Inhibition (HBsAg) versus negative control ([5]; Compound B 0.0002 μM): 19.99%
- Additive % Inhibition (HBsAg) versus negative control ([5]; Compound B 0.0006 μM): 22.24%
- Avg % Inhibition (HBsAg) versus negative control ([5]; Compound B 0.0006 μM): 22.24%
- Additive % Inhibition (HBsAg) versus negative control ([5]; Compound B 0.002 μM): 28.73%
- Avg % Inhibition (HBsAg) versus negative control ([5]; Compound B 0.002 μM): 28.73%
- Additive % Inhibition (HBsAg) versus negative control ([5]; Compound B 0.006 μM): 39.16%
- Avg % Inhibition (HBsAg) versus negative control ([5]; Compound B 0.006 μM): 39.16%
- Additive % Inhibition (HBsAg) versus negative control ([5]; Compound B 0.02 μM): 61.93%
- Avg % Inhibition (HBsAg) versus negative control ([5]; Compound B 0.02 μM): 61.93%
- Additive % Inhibition (HBsAg) versus negative control ([5]; Compound B 0.06 μM): 80.51%
- Avg % Inhibition (HBsAg) versus negative control ([5]; Compound B 0.06 μM): 80.51%
- Additive % Inhibition (HBsAg) versus negative control ([5]; Compound B 0.20 μM): 89.95%
- Avg % Inhibition (HBsAg) versus negative control ([5]; Compound B 0.20 μM): 89.95%
- Additive % Inhibition (HBsAg) versus negative control ([5]; Compound B 0.63 μM): 92.6%
- Avg % Inhibition (HBsAg) versus negative control ([5]; Compound B 0.63 μM): 92.6%
- Additive % Inhibition (HBsAg) versus negative control ([5]; Compound B 2 μM): 93.51%
- Avg % Inhibition (HBsAg) versus negative control ([5]; Compound B 2 μM): 93.51%
- Additive % Inhibition versus negative control ([5]; Compound B 0.0002 μM): 16.15%
- MacSynergy volume ([5]; Compound B 0.0002 μM): 0
- Additive % Inhibition versus negative control ([5]; Compound B 0.0006 μM): 18.39%
- MacSynergy volume ([5]; Compound B 0.0006 μM): 0
- Additive % Inhibition versus negative control ([5]; Compound B 0.002 μM): 21.16%
- MacSynergy volume ([5]; Compound B 0.002 μM): 0
- Additive % Inhibition versus negative control ([5]; Compound B 0.006 μM): 31.66%
- MacSynergy volume ([5]; Compound B 0.006 μM): 0
- Additive % Inhibition versus negative control ([5]; Compound B 0.02 μM): 51.93%
- MacSynergy volume ([5]; Compound B 0.02 μM): 0
- Additive % Inhibition versus negative control ([5]; Compound B 0.06 μM): 74.92%
- MacSynergy volume ([5]; Compound B 0.06 μM): 0
- Additive % Inhibition versus negative control ([5]; Compound B 0.20 μM): 86.86%
- MacSynergy volume ([5]; Compound B 0.20 μM): 0
- Additive % Inhibition versus negative control ([5]; Compound B 0.63 μM): 91.2%
- MacSynergy volume ([5]; Compound B 0.63 μM): 0
- Additive % Inhibition versus negative control ([5]; Compound B 2 μM): 92.52%
- MacSynergy volume ([5]; Compound B 2 μM): 0

Structure (SMILES): CC(C)(C)C1Cc2cc3c(cc2-c2cc(=O)c(C(=O)O)cn21)OCCCO3 (stereo not drawn) [drawing 612]
- EC50 [1]: 0.007 µM

Structure (SMILES): COCCCOc1cc2c(cc1Cl)-c1cc(=O)c(C(=O)O)cn1[C@H](C(C)C)CO2 [drawing 614]
- EC50 [1]: 0.009 µM

Structure (SMILES): COCCCOc1cc2c(nc1OC)-c1cc(=O)c(C(=O)O)cn1[C@H](C(C)C)C2 [drawing 615]
- EC50 [1]: 0.0004 µM

Structure (SMILES): CC(C)[C@@H]1COc2cc(OCCCO)c(Cl)cc2-c2cc(=O)c(C(=O)O)cn21 [drawing 616]
- EC50 [1]: 0.007 µM

Structure (SMILES): CC(C)[C@@H]1COc2cc(OCCCCO)c(Cl)cc2-c2cc(=O)c(C(=O)O)cn21 [drawing 617]
- EC50 [1]: 0.02 µM

Structure (SMILES): COCCOc1cc2c(cc1Cl)-c1cc(=O)c(C(=O)O)cn1C(C(C)C)CO2 (stereo not drawn) [drawing 618]
- EC50 [1]: 0.046 µM

Structure (SMILES): COc1cc2c(nc1OC)-c1cc(=O)c(C(=O)O)cn1C(C(C)C)C2 (stereo not drawn) [drawing 619]
- EC50 [1]: 0.002 µM
